Data on 1 compound can be found in PMC9371267 (PLoS Biology, 2022).

Substitutions are numbered along the chain they refer to.

Assay type in all cases: cell-based
In experiment [1] the target is T1, GALR2 L255^6.54A mutant (Homo sapiens, UniProt O43603, L255A).
T1 construct: expressed in transfected cells; host or cells: HEK293A
T1 sequence (O43603 1-387 L255A): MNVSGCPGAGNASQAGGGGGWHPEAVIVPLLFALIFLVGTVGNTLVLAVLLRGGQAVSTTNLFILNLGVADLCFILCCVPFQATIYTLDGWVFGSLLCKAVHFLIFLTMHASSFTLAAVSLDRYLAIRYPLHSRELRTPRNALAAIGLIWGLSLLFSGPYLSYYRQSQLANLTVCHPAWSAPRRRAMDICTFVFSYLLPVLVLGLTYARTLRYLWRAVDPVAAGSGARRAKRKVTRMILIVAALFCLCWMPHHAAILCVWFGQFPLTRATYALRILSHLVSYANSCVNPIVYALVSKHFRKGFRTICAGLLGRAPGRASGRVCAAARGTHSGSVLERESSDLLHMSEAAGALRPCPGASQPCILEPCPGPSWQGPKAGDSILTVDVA
The experiment is described as follows: NanoBiT-based Gq activation assay, L255^6.54A. The conditions noted are these: HEK293-A. As to the method: (§1) After an incubation for 1 day, the transfected cells were harvested, pelleted with centrifugation, and suspended in 2 mL of Hank’s balanced saline solution containing 0.01% bovine serum albumin (BSA fatty acid–free grade, SERVA) and 5 mM HEPES (pH 7.4) (assay buffer). The cell suspension was dispensed in a white 96-well plate at a volume of 80 μl per well and mixed with 20 μl of 50 μM coelenterazine (custom-synthesized by Amadis Chemical) diluted in the assay buffer. After 2-h incubation at room temperature, the plate was measured for baseline luminescence (SpectraMax L, Molecular Devices). […] Kinetics data points from 5 min to 10 min were averaged and normalized to the initial count and used as a G-protein activation index. The G-protein activation signals were fitted to a 4-parameter sigmoidal concentration-response curve (GraphPad Prism8), and pEC50 values (negative logarithmic values of EC50 values) and Span values (“Top”–“Bottom”) were obtained. For individual experiments, we calculated Emax by normalizing Span to the WT GALR2 and ΔpEC50 by subtracting pEC50 of the WT GALR2 performed in parallel. We also calculated Emax/EC50 of GALR2 mutants relative to that of GALR2 WT, a dimensionless parameter known as relative intrinsic activity (RAi) and used its log-transformed value (Log RAi) to denote receptor activity.

Experiment [2] addresses T2, GALR2 R184^5.35×36V mutant (Homo sapiens, UniProt O43603, R184V).
T2 construct: expressed in transfected cells; host or cells: HEK293A
T2 sequence (O43603 1-387 R184V): T1 sequence (O43603 1-387 L255A) with R184V, A255L
The experiment is described as follows: NanoBiT-based Gq activation assay, R184^5.35×36V. Conditions: HEK293-A; HEK293A; expression ~WT (1:5); normalized to WT (1:1); mean ± SEM, n = 3; ns p > 0.05 vs expression-matched WT. On the procedure: as §1

For experiment [3], the target named is T3, GALR2 H102^3.29A mutant (Homo sapiens, UniProt O43603, H102A).
T3 construct: expressed in transfected cells; host or cells: HEK293A
T3 sequence (O43603 1-387 H102A): T1 sequence (O43603 1-387 L255A) with H102A, A255L
The experiment can be described thus: NanoBiT-based Gq activation assay, H102^3.29A. Conditions: HEK293-A; HEK293A; expression ~WT (1:10); normalized to WT (1:1); mean ± SEM, n = 3; ** p < 0.01 vs expression-matched WT. As to the method:
as §1

The target of experiment [4] is T4, GALR2 F264^ECL3A mutant (Homo sapiens, UniProt O43603, F264A).
T4 construct: expressed in transfected cells; host or cells: HEK293A
T4 sequence (O43603 1-387 F264A): T1 sequence (O43603 1-387 L255A) with A255L, F264A
The experiment can be described thus: NanoBiT-based Gq activation assay, F264^ECL3A. The conditions noted are these: HEK293-A; HEK293A; expression ~WT (1:1); normalized to WT (1:1); mean ± SEM, n = 3; ns p > 0.05 vs expression-matched WT. On the procedure: as §1

For experiment [5], the target named is T5, GALR2 Y164^4.64×65F mutant (Homo sapiens, UniProt O43603, Y164F).
T5 construct: expressed in transfected cells; host or cells: HEK293A
T5 sequence (O43603 1-387 Y164F): T1 sequence (O43603 1-387 L255A) with Y164F, A255L
The experiment is described as follows: NanoBiT-based Gq activation assay, Y164^4.64×65F. The conditions noted are these: HEK293-A; HEK293A; expression ~WT (1:2.5); normalized to WT (1:1); mean ± SEM, n = 3; * p < 0.05 vs expression-matched WT. On the procedure: as §1

As usually defined, the Emax is the maximal effect, on the per cent scale that the assay sets. `CC(C)C[C@H](NC(=O)CNC(=O)[C@H](CC(N)=O)NC(=O)[C@H](CCCCN)NC(=O)[C@H](CC(=O)O)NC(=O)[C@H](CO)NC(=O)[C@H](Cc1ccccc1)NC(=O)[C@H](CO)NC(=O)[C@H](CCCNC(=N)N)NC(=O)[C@H](Cc1c[nH]cn1)NC(=O)[C@H](CC(N)=O)NC(=O)CNC(=O)[C@@H](NC(=O)[C@H](C)NC(=O)[C@H](Cc1c[nH]cn1)NC(=O)[C@@H]1CCCN1C(=O)CNC(=O)[C@H](CC(C)C)NC(=O)[C@H](CC(C)C)NC(=O)[C@H](Cc1ccc(O)cc1)NC(=O)CNC(=O)[C@H](C)NC(=O)[C@H](CO)NC(=O)[C@H](CC(N)=O)NC(=O)[C@H](CC(C)C)NC(=O)[C@@H](NC(=O)[C@H](Cc1c[nH]c2ccccc12)NC(=O)CN)[C@@H](C)O)C(C)C)C(=O)N[C@H](C(=O)N[C@@H](CO)C(=O)O)[C@@H](C)O` [galanin]: the Emax in experiment [1] amounted to 64.7 ± 1.6%; in experiment [2], 60 ± 6%; in experiment [3], 17.4 ± 2.4%; in experiment [4] it was 90.3 ± 2.3%; in experiment [5], 64.9 ± 2.4%.
